These results are taken from PubChem BioAssay (NCI).

What all share (assay): NCI anticancer screen, dose series, 48 h
Test [1] has as its system HOP-18 NSCLC.
Test [2] concerns SNB-78 CNS.
Test [3] concerns DLD-1 colon.
The subject of test [4] is DMS 273 small cell lung.
Test [5] concerns M19-MEL melanoma.
For test [6], the system named is DMS 114 small cell lung.
The test system of test [7] is KM20L2 colon.
Test [8] concerns HS 578T breast.
Test [9] concerns T-47D breast.

“And” between values parts separate entries of the source, which are not always exact repeats. Equal values may be shown once.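 Cultured in 96-well plates, cells were exposed to test compound for 48 hours across five concentrations. Abbreviation: GI50, concentration required for 50% inhibition of growth. At the TGI there is no net growth.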 The source made the active and inactive calls. Rule as the data show it: active = GI50 below about 0.43 µM; inactive = the rest.

For the compound `N#Cc1cccc(/C=N/N=C(\N)NO)c1`, the TGI in test [1], in test [2], in test [3], in [4] and in test [5] was greater than 100 µM each time.

As to `CN1C(=O)C2C(C1=O)C1(O)c3ccccc3C2(N)c2ccccc21` (stereo not given), the TGI in test [1], in test [2], in test [3], in [4], in test [5] and in [6] was greater than 100 µM in each case.

In the case of `CN(C)c1ccc(/C=c2\sc3nc4ccccc4n3c2=O)cc1`, the TGI in test [1], in test [2], in test [3], in test [7], in [4] and in test [5] was greater than 100 µM each time. This compound registered a TGI in test [6] greater than 100 µM.

Consider `COc1ccc(C2ON(c3cccc(C)n3)CC=C2C)cc1` (stereo not given), for which the TGI in [1], in [2], in [3], in test [7], in [4] and in [5] was greater than 100 µM in each case. Moreover, in test [6], the TGI was greater than 100 µM.

`CCN(CC)c1ccc(N=Nc2ccc(-c3nc4ccc[n+](C)c4o3)cc2)cc1`: the TGI in test [1] came to 38.3 µM; in test [2], 32.6 µM; in test [3] it was 20.1 µM; in test [7] it was 25.9 µM; in [4] it was 23.3 µM; in test [5] it was 16.3 µM. This compound came in with a TGI in test [6] of 15.8 µM.

`NCCCNCCCCNC(=O)C(O)NC(=O)CCCCCCN=C(N)N` (stereo not given): the TGI in test [1] was 744 µM; in test [2], greater than 750 µM; in [8], 750 µM and 3990 µM; in test [3] it was 750 µM; in test [7], 734 µM; in [4], greater than 750 µM. Also, the TGI is 750 µM in test [5], 581 µM in test [6] and greater than 5000 µM in [9]. Further, the GI50 is 2070 µM in test [8] and 2130 µM in test [9].

`NC(N)=NS(=O)(=O)c1ccc(Nc2c3ccccc3nc3c(C(=O)Nc4ccc(S(N)(=O)=O)cc4)cccc23)cc1`: the TGI in [1], in test [2], in [3], in [7], in [4] and in [5] was greater than 100 µM in each case. The compound also returned a TGI in test [6] greater than 100 µM.

For the compound `COC(=O)Nc1nc2ccc(Br)cc2[nH]1`, the TGI in [1] is greater than 100 µM; in [2], greater than 100 µM; in test [3], greater than 100 µM; in [7] it was 64.1 µM; in test [4], greater than 100 µM; in test [5], greater than 100 µM. Also, in test [6], the TGI is greater than 100 µM.

With `Clc1ccc(C(n2cc(Br)cn2)n2cc(Br)cn2)cc1`, the TGI in [1] was 34.4 µM; in test [2], 44.4 µM; in test [4], 36.8 µM; in test [5], 32.6 µM.

With `Cc1cc2c(C)nn(Cc3ccc(Cl)cc3)c2c(C#N)c1C`, the TGI in test [1], in test [2], in test [7], in [4] and in test [5] was greater than 100 µM each time.

`CC1OC(n2cc(F)c(=O)[nH]c2=O)C=CC1=O` (stereo not given): the TGI in test [1] amounted to 34.1 µM; in test [2], 37.1 µM; in [3] it was 36 µM; in [7], 34.6 µM; in test [4], 36.1 µM; in [5] it was 36.2 µM. In test [6], this compound came in with a TGI of 32.3 µM.

On to `COc1cccc(NC(=O)/C(Cc2nc3ccccc3nc2C)=N/NC(=O)C[n+]2ccccc2)c1`, for which the TGI in test [1], in test [2], in test [3], in test [7], in test [4] and in test [5] was greater than 100 µM in each case. The TGI in [6] is greater than 100 µM.

Take `N#CC1CC2(CCN1C(=O)c1ccccc1)OCCO2` (stereo not given): the TGI in test [1], in test [2], in test [3], in [7], in test [4] and in test [5] was greater than 100 µM in each case. The compound further registered a TGI in test [6] greater than 100 µM.

Take `O=Cc1c(O)c(C(=O)Nc2ccc3[nH]c(=O)[nH]c3c2)cc2ccccc12`: the TGI in [1], in test [2], in test [3], in test [7], in test [4] and in test [5] was greater than 100 µM throughout. The TGI in test [6] was greater than 100 µM.

On to `CCOC(=O)c1[nH]c(COC(C)=O)c2c1CCCCCCCCCC2`, for which the TGI in test [1], in [2], in test [3], in [7], in test [4] and in test [5] was greater than 100 µM each time. In [6], the TGI is greater than 100 µM.

Take `COC(C)(C)C/C=C/C(C)=C/C=C/C(C)=C\C=C\C(C)=C\C=C\C=C(C)\C=C\C=C(C)\C=C\C=C(C)\C=C\CC(C)(C)OC`: the GI50 in test [3], in [4], in test [5] and in test [6] was greater than 150 µg/mL in each case. For the same compound, the TGI in [3], in test [4], in test [5] and in test [6] was greater than 150 µg/mL in each case. In addition, the outcome in [7] was inactive.
